Measurements published in ChEMBL document CHEMBL4130367, “Click chemistry-based synthesis and anticancer activity evaluation of novel C-14 1,2,3-triazole dehydroabietic acid hybrids” (Eur J Med Chem, 2017).

Key:
SK-OV-3 = test: Cytotoxicity against human SKOV3 cells assessed as reduction in cell viability after 72 hrs by MTT assay; assay type: functional, cell-based; settings: SK-OV-3, 72 h
PC-3 = test: Cytotoxicity against human PC3 cells assessed as reduction in cell viability after 72 hrs by MTT assay; assay type: functional, cell-based; settings: PC-3, 72 h
MDA-MB-231 = test: Cytotoxicity against human MDA-MB-231 cells assessed as reduction in cell viability after 72 hrs by MTT assay; assay type: functional, cell-based; settings: MDA-MB-231, 72 h
[1] = Octanol-water partition coefficient, log P of the compound; assay type: physicochemical
MCF7 = test: cells; settings: Homo sapiens, MCF7, 72 h
Description: Cytotoxicity against human MCF7 cells assessed as reduction in cell viability after 72 hrs by MTT assay

NCI/ADR-RES [2] = test: Growth inhibition of human MCF7/ADR cells at 2.5 to 5 uM after 72 hrs by MTT assay relative to control; assay type: functional
NCI/ADR-RES [3] = test: Growth inhibition of human MCF7/ADR cells after 72 hrs by MTT assay; assay type: functional, cell-based

For `COC(=O)[C@]1(C)CCC[C@]2(C)c3ccc(C(C)C)c(NC(=O)Cn4cc(-c5cccc([N+](=O)[O-])c5)nn4)c3CC[C@@H]12`, the IC50 (SK-OV-3) was > 100 µM, the IC50 (PC-3) was > 100 µM and the IC50 (MDA-MB-231) was 87.5 µM. The logP [1] was 5.13 and the IC50 (MCF7) was 91.1 µM.
In the case of `COC(=O)[C@]1(C)CCC[C@]2(C)c3ccc(C(C)C)c(NC(=O)Cn4cc([Si](C)(C)C)nn4)c3CC[C@@H]12`, the IC50 (SK-OV-3) is reported as 65.2 µM, the IC50 (PC-3) is reported as 94.3 µM and the IC50 (MDA-MB-231) is reported as > 100 µM. The logP [1] was 6.04 and the IC50 (MCF7) was > 100 µM.
With `CC(C)[C@]12O[C@H]1[C@@H]1O[C@@]13[C@@]1(C)CCC4=C(COC4=O)[C@@H]1C[C@@H]1O[C@@]13C2=O` [TRIPTONIDE] the IC50 (PC-3) was 0.02 µM, the IC50 (MDA-MB-231) was 0.03 µM and the IC50 (MCF7) was 0.03 µM.
`COC(=O)[C@]1(C)CCC[C@]2(C)c3ccc(C(C)C)c(NC(=O)Cn4cc(-c5cc(OC)cc(OC)c5)nn4)c3CC[C@@H]12` showed an IC50 (SK-OV-3) of 3.3 µM, an IC50 (PC-3) of 5.2 µM and an IC50 (MDA-MB-231) of 1.4 µM. For the same compound, the logP [1] was 5.24 and the IC50 (MCF7) was 8.9 µM.
`COC(=O)[C@]1(C)CCC[C@]2(C)c3ccc(C(C)C)c(NC(=O)Cn4cc(-c5ccccc5)nn4)c3CC[C@@H]12` showed an IC50 (SK-OV-3) of 4.8 µM, an IC50 (PC-3) of 3.4 µM and an IC50 (MDA-MB-231) of 3 µM. For the same compound, the logP [1] was 5.2 and the IC50 (MCF7) was 3.7 µM.
With `COC(=O)[C@]1(C)CCC[C@]2(C)c3ccc(C(C)C)c(NC(=O)CN=[N+]=[N-])c3CC[C@@H]12` the IC50 (SK-OV-3) was > 100 µM, the IC50 (PC-3) was > 100 µM and the IC50 (MDA-MB-231) was 60.7 µM. It also gave an IC50 (MCF7) of 52.1 µM.
Compound `COC(=O)[C@]1(C)CCC[C@]2(C)c3ccc(C(C)C)c(NC(=O)Cn4cc(-c5cccc(OC)c5)nn4)c3CC[C@@H]12` has an IC50 (SK-OV-3) of 0.9 µM, an IC50 (PC-3) of 1.1 µM and an IC50 (MDA-MB-231) of 1.4 µM. For the same compound, the “growth inhibition (GI)” value (NCI/ADR-RES [2]) was >50%, the “growth inhibition (GI)” value (NCI/ADR-RES [3]) was “Dose-dependent effect” and the logP [1] was 5.23. The IC50 (MCF7) was 0.8 µM.
For `COC(=O)[C@]1(C)CCC[C@]2(C)c3ccc(C(C)C)c(NC(=O)Cn4cc(CNc5nc(Cl)nc(Cl)n5)nn4)c3CC[C@@H]12`, the IC50 (SK-OV-3) was 92.1 µM, the IC50 (PC-3) was > 100 µM and the IC50 (MDA-MB-231) was > 100 µM. The logP [1] was 5.12 and the IC50 (MCF7) was > 100 µM.
In the case of `COC(=O)[C@]1(C)CCC[C@]2(C)c3ccc(C(C)C)c(NC(=O)Cn4cc(CBr)nn4)c3CC[C@@H]12`, the IC50 (SK-OV-3) is reported as > 100 µM, the IC50 (PC-3) is reported as > 100 µM and the IC50 (MDA-MB-231) is reported as 60 µM. For the same compound, the logP [1] was 4.47 and the IC50 (MCF7) was > 100 µM.
`COC(=O)[C@]1(C)CCC[C@]2(C)c3ccc(C(C)C)c(NC(=O)Cn4cc(-c5ccc(OC)cc5)nn4)c3CC[C@@H]12` showed an IC50 (SK-OV-3) of 1.4 µM, an IC50 (PC-3) of 1.9 µM and an IC50 (MDA-MB-231) of 1.8 µM. The “growth inhibition (GI)” value (NCI/ADR-RES [2]) was >50%, the “growth inhibition (GI)” value (NCI/ADR-RES [3]) was “Dose-dependent effect” and the logP [1] was 5.28. The IC50 (MCF7) was 1.4 µM.
In the case of `COC(=O)[C@]1(C)CCC[C@]2(C)c3ccc(C(C)C)c(NC(=O)CCl)c3CC[C@@H]12`, the IC50 (SK-OV-3) is reported as 69.7 µM, the IC50 (PC-3) is reported as 71.2 µM and the IC50 (MDA-MB-231) is reported as > 100 µM. It also gave an IC50 (MCF7) of 51.6 µM.
Work on `O=c1[nH]cc(F)c(=O)[nH]1` [FLUOROURACIL] yielded an IC50 (SK-OV-3) of 20.8 µM, an IC50 (PC-3) of 13.7 µM and an IC50 (MDA-MB-231) of 24.5 µM. The IC50 (MCF7) was 5.2 µM.
For `COC(=O)[C@]1(C)CCC[C@]2(C)c3ccc(C(C)C)c(NC(=O)Cn4cc(-c5cccs5)nn4)c3CC[C@@H]12`, the IC50 (SK-OV-3) was > 100 µM, the IC50 (PC-3) was > 100 µM and the IC50 (MDA-MB-231) was 57.1 µM. For the same compound, the logP [1] was 4.98 and the IC50 (MCF7) was > 100 µM.
In the case of `COC(=O)[C@]1(C)CCC[C@]2(C)c3ccc(C(C)C)c(NC(=O)Cn4cc(-c5ccc(OC(F)(F)F)cc5)nn4)c3CC[C@@H]12`, the IC50 (SK-OV-3) is reported as 20.3 µM, the IC50 (PC-3) is reported as 12.1 µM and the IC50 (MDA-MB-231) is reported as 23.4 µM. For the same compound, the logP [1] was 6.17 and the IC50 (MCF7) was 9.2 µM.
For `COC(=O)[C@]1(C)CCC[C@]2(C)c3ccc(C(C)C)c(NC(=O)Cn4cc(-c5ccncc5)nn4)c3CC[C@@H]12`, the IC50 (SK-OV-3) was > 100 µM, the IC50 (PC-3) was > 100 µM and the IC50 (MDA-MB-231) was > 100 µM. For the same compound, the logP [1] was 3.91 and the IC50 (MCF7) was > 100 µM.
With `COC(=O)[C@]1(C)CCC[C@]2(C)c3ccc(C(C)C)c(NC(=O)Cn4cc(-c5ccc([N+](=O)[O-])cc5)nn4)c3CC[C@@H]12` the IC50 (SK-OV-3) was 77.3 µM, the IC50 (PC-3) was > 100 µM and the IC50 (MDA-MB-231) was > 100 µM. For the same compound, the logP [1] was 5.16 and the IC50 (MCF7) was > 100 µM.
Compound `COC(=O)[C@]1(C)CCC[C@]2(C)c3ccc(C(C)C)c(NC(=O)Cn4cc(-c5ccc(F)cc5)nn4)c3CC[C@@H]12` has an IC50 (SK-OV-3) of 1.8 µM, an IC50 (PC-3) of 2.6 µM and an IC50 (MDA-MB-231) of 1 µM. For the same compound, the logP [1] was 5.31 and the IC50 (MCF7) was 1.9 µM.
In the case of `COC(=O)[C@]1(C)CCC[C@]2(C)c3ccc(C(C)C)c(NC(=O)Cn4cc(-c5ccccn5)nn4)c3CC[C@@H]12`, the IC50 (SK-OV-3) is reported as > 100 µM, the IC50 (PC-3) is reported as > 100 µM and the IC50 (MDA-MB-231) is reported as > 100 µM. The logP [1] was 4.05 and the IC50 (MCF7) was > 100 µM.
`COC(=O)[C@]1(C)CCC[C@]2(C)c3ccc(C(C)C)c(NC(=O)Cn4cc(-c5ccc6ccccc6c5)nn4)c3CC[C@@H]12` gave an IC50 (SK-OV-3) of 45.3 µM, an IC50 (PC-3) of 9.1 µM and an IC50 (MDA-MB-231) of 27 µM. It also gave a logP [1] of 6.38 and an IC50 (MCF7) of 12.1 µM.
With `COC(=O)[C@]1(C)CCC[C@]2(C)c3ccc(C(C)C)c(NC(=O)Cn4cc(Cc5ccccc5)nn4)c3CC[C@@H]12` the IC50 (SK-OV-3) was 59.4 µM, the IC50 (PC-3) was > 100 µM and the IC50 (MDA-MB-231) was 31.9 µM. For the same compound, the logP [1] was 5.72 and the IC50 (MCF7) was > 100 µM.
Work on `COC(=O)[C@]1(C)CCC[C@]2(C)c3ccc(C(C)C)c(N)c3CC[C@@H]12` yielded an IC50 (SK-OV-3) of 6.1 µM, an IC50 (PC-3) of 25.4 µM and an IC50 (MDA-MB-231) of 24.1 µM. The IC50 (MCF7) was 31.1 µM.
`COC(=O)[C@]1(C)CCC[C@]2(C)c3ccc(C(C)C)c(NC(=O)Cn4cc(-c5ccccc5OC)nn4)c3CC[C@@H]12` showed an IC50 (SK-OV-3) of 1.4 µM, an IC50 (PC-3) of 2.3 µM and an IC50 (MDA-MB-231) of 1.8 µM. The logP [1] was 5.21 and the IC50 (MCF7) was 1 µM.
For `COC(=O)[C@]1(C)CCC[C@]2(C)c3ccc(C(C)C)c(NC(=O)Cn4cc(-c5cccnc5)nn4)c3CC[C@@H]12`, the IC50 (SK-OV-3) was > 100 µM, the IC50 (PC-3) was 30 µM and the IC50 (MDA-MB-231) was 41.9 µM. The logP [1] was 4.13 and the IC50 (MCF7) was > 100 µM.
`COC(=O)[C@]1(C)CCC[C@]2(C)c3ccc(C(C)C)c(NC(=O)Cn4cc(-c5ccc(-c6ccccc6)cc5)nn4)c3CC[C@@H]12` gave an IC50 (SK-OV-3) of 16 µM, an IC50 (PC-3) of 11.1 µM and an IC50 (MDA-MB-231) of 8.9 µM. The logP [1] was 6.99 and the IC50 (MCF7) was 9.5 µM.
With `COC(=O)[C@]1(C)CCC[C@]2(C)c3ccc(C(C)C)c(NC(=O)Cn4cc(-c5ccccc5F)nn4)c3CC[C@@H]12` the IC50 (SK-OV-3) was 15.2 µM, the IC50 (PC-3) was 8.7 µM and the IC50 (MDA-MB-231) was 10 µM. It also gave a logP [1] of 5.36 and an IC50 (MCF7) of 19.4 µM.
Work on `CCOC(=O)c1cn(CC(=O)Nc2c(C(C)C)ccc3c2CC[C@H]2[C@](C)(C(=O)OC)CCC[C@]32C)nn1` yielded an IC50 (SK-OV-3) of 22.9 µM, an IC50 (PC-3) of 15.4 µM and an IC50 (MDA-MB-231) of 21.3 µM. It also gave a logP [1] of 3.97 and an IC50 (MCF7) of 16.1 µM.
With `COC(=O)[C@]1(C)CCC[C@]2(C)c3ccc(C(C)C)c(NC(=O)Cn4cc(C5CC5)nn4)c3CC[C@@H]12` the IC50 (SK-OV-3) was 19.4 µM, the IC50 (PC-3) was 12.3 µM and the IC50 (MDA-MB-231) was 16.2 µM. For the same compound, the logP [1] was 4.11 and the IC50 (MCF7) was 24.2 µM.
For `COC(=O)[C@]1(C)CCC[C@]2(C)c3ccc(C(C)C)c(NC(=O)Cn4cc(-c5cccc(F)c5)nn4)c3CC[C@@H]12`, the IC50 (SK-OV-3) was 91.2 µM, the IC50 (PC-3) was > 100 µM and the IC50 (MDA-MB-231) was > 100 µM. It also gave a logP [1] of 5.34 and an IC50 (MCF7) of 68.8 µM.
Work on `COC(=O)[C@]1(C)CCC[C@]2(C)c3ccc(C(C)C)c(NC(=O)Cn4cc(-c5cccc(NC(C)=O)c5)nn4)c3CC[C@@H]12` yielded an IC50 (SK-OV-3) of 3.9 µM, an IC50 (PC-3) of 10.1 µM and an IC50 (MDA-MB-231) of 5.9 µM. For the same compound, the logP [1] was 4.39 and the IC50 (MCF7) was 1.5 µM.
`COC(=O)c1nnn(CC(=O)Nc2c(C(C)C)ccc3c2CC[C@H]2[C@](C)(C(=O)OC)CCC[C@]32C)c1C(=O)OC` showed an IC50 (SK-OV-3) of 25.3 µM, an IC50 (PC-3) of 49 µM and an IC50 (MDA-MB-231) of 8.2 µM. For the same compound, the logP [1] was 3.67 and the IC50 (MCF7) was 15.6 µM.
